According to ChEMBL document CHEMBL1201862, “PubChem BioAssay data set” (2004):
Active and inactive are the calls of the source. Cut-off read from the data, not from the text of the source, for most assays here: actives have a measured IC50 and inactives only a lower limit.

How the values were obtained:
[1] = molecular target: T1, Tyrosine-protein phosphatase non-receptor type 7 (Homo sapiens, UniProt P35236); assay: inhibition of hematopoietic tyrosine phosphatase HePTP – biochemical, set 2, SAR follow-up (AID 449736); type: functional
T1 sequence (P35236 whole entry): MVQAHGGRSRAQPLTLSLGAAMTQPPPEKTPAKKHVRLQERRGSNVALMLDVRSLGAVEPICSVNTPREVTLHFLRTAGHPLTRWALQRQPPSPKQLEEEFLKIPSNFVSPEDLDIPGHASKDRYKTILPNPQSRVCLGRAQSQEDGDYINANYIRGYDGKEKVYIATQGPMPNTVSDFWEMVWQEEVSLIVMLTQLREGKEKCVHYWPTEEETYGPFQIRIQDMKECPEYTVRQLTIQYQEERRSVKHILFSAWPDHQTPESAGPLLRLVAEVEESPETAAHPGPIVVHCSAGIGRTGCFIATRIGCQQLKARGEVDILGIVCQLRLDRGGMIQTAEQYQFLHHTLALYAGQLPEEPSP

[2] = molecular target: T1, Tyrosine-protein phosphatase non-receptor type 7; assay: redox-active compounds inhibiting HePTP phosphatase – biochemical, fluorescence, mechanism study (AID 2068); type: functional
[3] = molecular target: T2, Dual specificity protein phosphatase 3 (Homo sapiens, UniProt P51452); assay: SAR VHR1 Fluorescent Assay for In Vitro dose response studies Set 2. [Related pubchem assays (depositor defined):AID1654, AID1661, AID1878]; type: functional
T2 sequence (P51452 whole entry): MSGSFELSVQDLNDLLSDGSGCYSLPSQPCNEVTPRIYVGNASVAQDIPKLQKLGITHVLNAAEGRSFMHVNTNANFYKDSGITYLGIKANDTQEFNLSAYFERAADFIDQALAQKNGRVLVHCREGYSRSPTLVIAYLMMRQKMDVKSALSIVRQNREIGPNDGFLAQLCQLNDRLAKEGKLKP

[4] = molecular target: T2, Dual specificity protein phosphatase 3; assay: MOA VHR1 Fluorescent secondary assay for identification of redox-state modulating compounds. [Related pubchem assays (depositor defined):AID1654, AID1661, AID1878, AID1957]
[5] = molecular target: T3, Tyrosine-protein phosphatase non-receptor type 22 (Homo sapiens, UniProt Q9Y2R2); assay: SAR LYP1 Fluorescent Assay using OMFP substrate for In Vitro dose response studies - Set 3. [Related pubchem assays (depositor defined):AID1779, AID1784, AID2140, AID2686]; type: functional
T3 sequence (Q9Y2R2 whole entry): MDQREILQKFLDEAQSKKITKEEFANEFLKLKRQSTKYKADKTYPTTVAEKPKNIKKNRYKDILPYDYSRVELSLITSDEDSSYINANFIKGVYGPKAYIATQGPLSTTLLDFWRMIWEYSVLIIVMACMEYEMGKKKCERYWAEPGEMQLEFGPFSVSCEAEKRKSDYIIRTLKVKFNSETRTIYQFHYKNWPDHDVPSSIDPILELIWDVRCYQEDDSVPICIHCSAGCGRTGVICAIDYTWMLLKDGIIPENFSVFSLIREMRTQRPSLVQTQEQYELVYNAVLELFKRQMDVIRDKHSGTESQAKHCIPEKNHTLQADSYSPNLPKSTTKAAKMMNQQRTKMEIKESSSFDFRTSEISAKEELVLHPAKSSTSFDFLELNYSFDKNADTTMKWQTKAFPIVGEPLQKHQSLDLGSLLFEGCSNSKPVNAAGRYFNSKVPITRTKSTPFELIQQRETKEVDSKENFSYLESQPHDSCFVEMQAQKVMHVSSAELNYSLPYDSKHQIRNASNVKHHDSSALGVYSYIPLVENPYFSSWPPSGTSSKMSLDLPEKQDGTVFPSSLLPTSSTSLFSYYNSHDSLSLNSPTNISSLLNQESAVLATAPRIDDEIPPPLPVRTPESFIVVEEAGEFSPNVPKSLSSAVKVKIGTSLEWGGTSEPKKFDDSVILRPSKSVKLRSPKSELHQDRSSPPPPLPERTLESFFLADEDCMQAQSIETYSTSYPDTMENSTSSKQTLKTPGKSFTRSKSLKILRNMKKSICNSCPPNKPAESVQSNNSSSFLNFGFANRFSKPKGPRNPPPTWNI

[6] = molecular target: T4, Dual specificity protein phosphatase 6 (Rattus norvegicus, UniProt Q64346); type: functional;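 note: confirmatory in vitro dose-response testing of MKP-3 inhibition; recombinant His-tagged MKP-3 made in E. coli BL21 with OMFP substrate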
T4 sequence (Q64346 whole entry): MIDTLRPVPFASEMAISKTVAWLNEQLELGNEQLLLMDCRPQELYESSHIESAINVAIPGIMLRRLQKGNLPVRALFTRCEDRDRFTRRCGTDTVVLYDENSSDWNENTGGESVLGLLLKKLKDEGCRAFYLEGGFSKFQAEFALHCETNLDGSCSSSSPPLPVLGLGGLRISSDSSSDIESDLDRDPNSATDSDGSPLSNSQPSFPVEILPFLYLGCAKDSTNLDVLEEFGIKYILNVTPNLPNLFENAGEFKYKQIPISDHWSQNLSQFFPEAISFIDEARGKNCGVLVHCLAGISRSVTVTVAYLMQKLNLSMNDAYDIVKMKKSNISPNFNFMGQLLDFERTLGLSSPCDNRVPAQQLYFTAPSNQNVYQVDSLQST

[7] = molecular target: T2, Dual specificity protein phosphatase 3; assay: SAR VHR1 Fluorescent Assay for In Vitro dose response studies. [Related pubchem assays (depositor defined):AID1654, AID1661, AID1878, AID1992, AID2004, AID2070, AID2085]; type: functional
[8] = molecular target: T5, Tyrosine-protein phosphatase non-receptor type 12 (Homo sapiens, UniProt Q05209); assay: SAR Selectivity Analysis of small molecule inhibitors of PEST using pCAP in a fluorescence assay. [Related pubchem assays (depositor defined):AID1779, AID1784, AID2135]; type: functional
T5 sequence (Q05209 whole entry): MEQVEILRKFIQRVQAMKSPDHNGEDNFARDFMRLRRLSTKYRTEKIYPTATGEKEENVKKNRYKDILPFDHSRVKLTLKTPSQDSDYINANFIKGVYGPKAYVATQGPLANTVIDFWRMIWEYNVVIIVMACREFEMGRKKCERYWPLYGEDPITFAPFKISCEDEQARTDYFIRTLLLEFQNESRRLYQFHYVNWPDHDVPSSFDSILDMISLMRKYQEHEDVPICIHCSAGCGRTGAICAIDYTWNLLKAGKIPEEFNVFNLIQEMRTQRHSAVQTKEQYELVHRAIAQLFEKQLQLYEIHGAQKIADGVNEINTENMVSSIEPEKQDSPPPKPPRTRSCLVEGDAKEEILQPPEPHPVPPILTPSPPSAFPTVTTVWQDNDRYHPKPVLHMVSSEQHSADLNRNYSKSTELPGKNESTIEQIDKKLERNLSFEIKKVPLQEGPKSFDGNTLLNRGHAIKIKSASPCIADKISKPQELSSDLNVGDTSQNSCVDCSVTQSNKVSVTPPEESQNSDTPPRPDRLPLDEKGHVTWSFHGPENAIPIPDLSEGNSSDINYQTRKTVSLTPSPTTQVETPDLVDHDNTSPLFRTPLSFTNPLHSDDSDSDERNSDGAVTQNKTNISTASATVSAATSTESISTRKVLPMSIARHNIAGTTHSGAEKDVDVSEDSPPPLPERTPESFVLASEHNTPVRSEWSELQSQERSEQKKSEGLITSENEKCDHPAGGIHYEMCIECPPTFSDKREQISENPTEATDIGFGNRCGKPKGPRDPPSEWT

[9] = molecular target: Signal transducer and activator of transcription 3 (Homo sapiens, UniProt P40763); assay: STAT3 activation with BCL3 mRNA and toxicity – cell-based, […], BCL3 qPCR, cytotoxicity, late-stage follow-up, panel member STAT3 Activation (AID 2049)
Sequence of Signal transducer and activator of transcription 3 (P40763 whole entry): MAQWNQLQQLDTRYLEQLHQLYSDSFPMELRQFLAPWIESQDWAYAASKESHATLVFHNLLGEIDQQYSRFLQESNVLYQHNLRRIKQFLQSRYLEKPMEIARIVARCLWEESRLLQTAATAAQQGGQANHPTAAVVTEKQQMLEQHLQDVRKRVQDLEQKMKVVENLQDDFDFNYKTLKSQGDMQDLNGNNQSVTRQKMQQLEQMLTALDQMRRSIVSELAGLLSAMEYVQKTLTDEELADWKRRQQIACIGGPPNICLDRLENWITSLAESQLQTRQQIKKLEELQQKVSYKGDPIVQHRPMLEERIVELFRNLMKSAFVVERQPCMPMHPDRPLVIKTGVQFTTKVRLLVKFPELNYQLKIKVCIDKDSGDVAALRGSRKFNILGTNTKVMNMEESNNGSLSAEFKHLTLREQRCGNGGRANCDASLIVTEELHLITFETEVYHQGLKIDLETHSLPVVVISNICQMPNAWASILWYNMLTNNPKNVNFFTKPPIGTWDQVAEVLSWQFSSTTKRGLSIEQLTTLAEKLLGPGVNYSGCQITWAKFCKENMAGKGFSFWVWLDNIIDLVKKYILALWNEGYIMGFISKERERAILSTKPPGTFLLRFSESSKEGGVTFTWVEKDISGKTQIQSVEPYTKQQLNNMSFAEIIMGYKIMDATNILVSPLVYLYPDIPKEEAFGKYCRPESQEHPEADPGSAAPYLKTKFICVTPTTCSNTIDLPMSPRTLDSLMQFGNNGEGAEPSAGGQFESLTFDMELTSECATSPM

[10] = molecular target: Cystic fibrosis transmembrane conductance regulator/Golgi-associated PDZ and coiled-coil motif-containing protein (Homo sapiens, UniProt P13569+Q9HD26); assay: potency against CAL PDZ-peptide interaction – biochemical, fluorescence polarization, Cerulean-tagged CAL PDZ, cherry-picks, dose response (AID 504773)
Sequence of Cystic fibrosis transmembrane conductance regulator/Golgi-associated PDZ and coiled-coil motif-containing protein (P13569 whole entry, other chains not shown): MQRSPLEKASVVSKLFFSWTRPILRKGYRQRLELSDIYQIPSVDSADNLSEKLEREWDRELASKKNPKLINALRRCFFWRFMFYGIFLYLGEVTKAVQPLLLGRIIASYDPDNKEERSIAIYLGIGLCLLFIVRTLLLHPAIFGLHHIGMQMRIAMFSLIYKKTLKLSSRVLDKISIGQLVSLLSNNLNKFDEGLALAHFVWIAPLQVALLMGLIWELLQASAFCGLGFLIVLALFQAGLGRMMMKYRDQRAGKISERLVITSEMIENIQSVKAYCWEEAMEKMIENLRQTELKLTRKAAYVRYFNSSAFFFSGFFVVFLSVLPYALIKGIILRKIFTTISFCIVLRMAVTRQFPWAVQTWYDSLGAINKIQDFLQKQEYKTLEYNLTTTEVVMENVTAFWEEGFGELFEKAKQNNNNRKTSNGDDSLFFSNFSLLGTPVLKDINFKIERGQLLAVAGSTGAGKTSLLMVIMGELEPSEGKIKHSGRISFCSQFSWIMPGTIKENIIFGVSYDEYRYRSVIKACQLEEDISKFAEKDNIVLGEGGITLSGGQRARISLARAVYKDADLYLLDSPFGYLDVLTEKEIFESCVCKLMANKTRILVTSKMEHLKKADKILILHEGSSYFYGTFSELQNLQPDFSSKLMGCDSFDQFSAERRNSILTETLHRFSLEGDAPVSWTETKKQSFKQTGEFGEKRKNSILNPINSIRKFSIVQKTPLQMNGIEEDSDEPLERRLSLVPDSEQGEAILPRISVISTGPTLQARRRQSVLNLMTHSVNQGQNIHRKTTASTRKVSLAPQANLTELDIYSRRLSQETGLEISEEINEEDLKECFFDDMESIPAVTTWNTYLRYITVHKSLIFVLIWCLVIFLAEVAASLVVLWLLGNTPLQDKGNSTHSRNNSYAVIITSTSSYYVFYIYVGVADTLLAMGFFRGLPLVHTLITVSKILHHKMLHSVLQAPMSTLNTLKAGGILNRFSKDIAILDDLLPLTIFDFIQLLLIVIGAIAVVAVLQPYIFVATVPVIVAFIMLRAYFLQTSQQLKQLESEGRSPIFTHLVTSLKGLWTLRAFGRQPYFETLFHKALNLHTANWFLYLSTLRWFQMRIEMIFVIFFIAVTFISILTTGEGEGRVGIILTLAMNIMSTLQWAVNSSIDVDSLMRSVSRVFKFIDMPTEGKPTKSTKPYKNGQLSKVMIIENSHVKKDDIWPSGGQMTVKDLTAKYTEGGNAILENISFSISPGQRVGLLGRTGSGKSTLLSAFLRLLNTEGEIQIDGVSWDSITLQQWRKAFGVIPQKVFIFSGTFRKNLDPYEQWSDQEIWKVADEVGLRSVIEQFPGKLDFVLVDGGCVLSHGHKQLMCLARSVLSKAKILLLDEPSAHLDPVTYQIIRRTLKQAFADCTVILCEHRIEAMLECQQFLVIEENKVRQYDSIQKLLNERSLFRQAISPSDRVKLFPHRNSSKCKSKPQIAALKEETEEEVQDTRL

CCOC(=O)C1=C(C)N=c2s/c(=C/c3cc(Cl)c(OCC(=O)O)c(OC)c3)c(=O)n2C1c1ccccc1Cl (stereo not given)
active: IC50 [1] 1.72 µM | IC50 [2] 1.65 µM | IC50 [3] 41.1 µM | IC50 [4] 3.07 µM | IC50 [5] 30.5 µM | IC50 [6] 39.5 µM | IC50 [7] 15.1 µM | IC50 [8] 7.63 µM

O=C(Nc1ccccc1Cl)c1cc(C2CC2)on1
active: EC50 [9] 6.08 µM

OC(c1ccccc1)(c1ccccc1)c1nccc2ccccc12
active: AC50 [10] 44.9 µM
